“And” between values parts separate entries of the source, which are not always exact repeats. Identical values can stand only once. Like-named read-outs stand apart in the source and are kept apart here. Where a SMILES comes first, the peptide text is derived from it. [ ]: non-standard residue; d: D form. The star is where a group is joined. ξ: configuration not given here. Ala(6-(2-MePh)pyridin-3-yl) = Cc1ccccc1-c1ccc(C[C@H](N)C(=O)O)cn1; Phe(4-(2-Et-4-HO-Ph)) = CCc1cc(O)ccc1-c1ccc(C[C@H](N)C(=O)O)cc1; Bip(2'-Et-4'-OMe) = CCc1cc(OC)ccc1-c1ccc(C[C@H](N)C(=O)O)cc1; Lactoyl(3-(imidazol-4-yl)) = O=C([C@@H](O)Cc1c[nH]cn1)*; Bip(2'-Me) = Cc1ccccc1-c1ccc(C[C@H](N)C(=O)O)cc1; ξαMePhe(2-F) = CC(N)(Cc1ccccc1F)C(=O)O; Thr(3ξ) = CC(O)[C@H](N)C(=O)O; ξαMeP = CC1(C(=O)O)CCCN1; Aib = CC(C)(N)C(=O)O; Moc = COC(=O)*
What was measured:
[1] = Exposure during ipGTT in ob/ob mice; assay type: in vivo, mouse; conditions: sc injection
Procedure: (§1) Peptides were dissolved in an appropriate vehicle at a concentration in nmol/ml equivalent to the dose that was to be administered in nmol/kg so that each mouse would receive the same volume/weight of dosing solution. Male C57BL/6-ob/ob mice (10 weeks old) were randomized into groups of 6 mice per group based on fed plasma glucose and body weight. After an overnight fast, mice were weighed and placed in the experimental lab. After 30 min in the environment, the mice were bled via tail tip at −30 min and immediately injected subcutaneously (sc) with vehicle or the peptide dissolved in vehicle (0.1 ml solution/100 g body weight). At time 0 the mice were bled and then injected intraperitoneally with 50% glucose (2 g/kg) to initiate the intraperitoneal glucose tolerance test (ipGTT). The mice were bled 30, 60, 120 and 180 min after the glucose injection. Blood samples were drawn into potassium EDTA, placed on ice during the study and subsequently centrifuged for 10 min at 3000 rpm at 4° C. Plasma samples were diluted 11-fold for glucose analysis in the Cobas System. Another 5 μl plasma sample was diluted 5-fold with 20 μl of Sample Diluent (Insulin ELISA assay kit, Crystal Chem. Inc.) and stored at −20° C. for subsequent analysis using the Ultra Sensitive Mouse Insulin ELISA kit (Crystal Chem Inc.).

ob/ob mice = experiment: Intraperitoneal glucose tolerance test (ipGTT) in ob/ob mice after sc injection; assay type: in vivo, mouse; conditions: for Potency in ob/ob mice ED50: sc injection, plasma glucose AUC in ipGTT; for effect on postprandial plasma glucose / effect on postprandial plasma insulin: sc; for effect on postprandial plasma glucose: 0 to 180 or 210 min; for Potency in ob/ob mice: % AUC Reduction in Plasma Glucose in an IP Glucose Tolerance Test after SC Injection of Compound: relative to vehicle-treated group
Procedure: as §1

Mouse GLP-1 Receptor = molecular target: T1, Mouse GLP-1 Receptor (Mus musculus, UniProt O35659); experiment: Stimulation of cAMP synthesis in CHO cells expressing mouse GLP-1 receptor; assay type: cell-based
T1 construct: expressed in transfected cells; host or cells: CHO cells
T1 sequence (O35659 22-463): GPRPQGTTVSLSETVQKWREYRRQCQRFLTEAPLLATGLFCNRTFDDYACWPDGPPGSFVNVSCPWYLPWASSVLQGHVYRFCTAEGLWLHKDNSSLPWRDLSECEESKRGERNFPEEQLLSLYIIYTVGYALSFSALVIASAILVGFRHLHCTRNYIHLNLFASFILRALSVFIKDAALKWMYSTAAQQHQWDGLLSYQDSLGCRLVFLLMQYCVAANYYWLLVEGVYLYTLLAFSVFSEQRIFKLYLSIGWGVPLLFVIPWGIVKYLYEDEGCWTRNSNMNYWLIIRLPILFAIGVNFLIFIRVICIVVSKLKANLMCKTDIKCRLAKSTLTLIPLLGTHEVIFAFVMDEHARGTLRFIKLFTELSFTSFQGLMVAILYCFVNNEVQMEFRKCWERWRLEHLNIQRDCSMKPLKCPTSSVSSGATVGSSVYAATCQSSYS
Procedure: (§2) CHO-GLP-1R-19 cells (20,000 in 100 μl of media) were plated into each well of a 96-well tissue culture microtiter plate and incubated overnight in a 5% CO2 atmosphere at 37° C. On the day of the assay, cells were washed once with 100 μl of phosphate-buffered saline (PBS). A Biomek 2000 was used to serially dilute all peptides prior to beginning the assay. Serial dilutions were carried out in 100% DMSO.
(§3) 50 μl of each cAMP standard was added by hand and 70 μl of mix reagent (Amersham cAMP SPA kit) was added using the multidrop. […] This standard curve was used to convert CPM to pmol of cAMP.
(§4) Cell plates and peptide plates were loaded onto the Platemate. The media was aspirated from the wells and discarded. 100 uL per well of the peptide/buffer mixture were then added from the peptide plates to initiate the assay. After 30 min. of incubation the peptide/buffer was removed and 50 uL of the lysis reagent 1 solution was added per well. The plate was kept for one hour at RT or overnight if refrigerated and sealed.
(§5) Dose dependence for Compounds was determined at half-log concentrations in duplicate. […] A standard curve was determined using known amounts of cyclic AMP. […] The data were analyzed by nonlinear regression curve fitting (4 parameter sigmoidal dose-response curve) to determine the EC50 of the compounds.

Human GLP-1 Receptor = molecular target: T2, Human GLP-1 Receptor (Homo sapiens, UniProt P43220); experiment: Cyclic AMP determination in CHO cells expressing human GLP-1 receptor; assay type: cell-based
T2 construct: Full-length human glucagon-like peptide 1 receptor was stably expressed in CHO-K1 cells; expressed in transfected cells; host or cells: CHO-K1 (clone CHO-GLP1R-19)
T2 sequence (P43220 24-463): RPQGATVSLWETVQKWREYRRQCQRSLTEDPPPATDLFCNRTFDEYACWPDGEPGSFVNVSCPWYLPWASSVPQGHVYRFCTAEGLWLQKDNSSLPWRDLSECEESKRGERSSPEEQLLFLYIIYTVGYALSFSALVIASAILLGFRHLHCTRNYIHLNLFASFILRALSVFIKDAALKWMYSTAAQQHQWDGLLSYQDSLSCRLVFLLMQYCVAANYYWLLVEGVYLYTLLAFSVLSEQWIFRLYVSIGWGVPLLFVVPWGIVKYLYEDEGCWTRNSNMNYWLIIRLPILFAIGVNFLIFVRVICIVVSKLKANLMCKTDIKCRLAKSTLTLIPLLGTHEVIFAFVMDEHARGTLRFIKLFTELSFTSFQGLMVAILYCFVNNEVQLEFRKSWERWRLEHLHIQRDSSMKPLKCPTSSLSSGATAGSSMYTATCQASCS
Procedure: as §2, §3, §4, §5

[2] = Dog pharmacokinetic study; assay type: in vivo; conditions: for Vd: read-out: Vss; for half-life: read-out: t½ (converted)
[3] = dog, plasma, 67 ug/kg, male beagle dogs, intravenous 67 μg/kg
[4] = vehicle 0.2 M Tris buffer (pH 8.0)
[5] = dog, plasma, sc, 67 ug/kg, male beagle dogs, subcutaneous 67 μg/kg
[6] = vehicle propylene glycol/pH 7.4 phosphate buffer (1:1)

Row | Structure (SMILES) | Exposure/dose during ipGTT in ob/ob mice [1] | Potency in ob/ob mice ED50 (ob/ob mice) | effect on postprandial plasma glucose (ob/ob mice; ipGTT ob/ob mice) | Vd [2, 3] | Exposure in dogs (sc@67 μg/kg) [2, 4] | Potency in ob/ob mice: % AUC Reduction in Plasma Glucose in an IP Glucose Tolerance Test after SC Injection of Compound (ob/ob mice; 10 nmol/kg sc) | effect on postprandial plasma insulin (ob/ob mice; ipGTT ob/ob mice) | Exposure in dogs (sc@67 μg/kg) [2, 6] | further results
1 | CCc1cc(O)ccc1-c1ccc(C[C@H](NC(=O)[C@H](CC(=O)O)NC(=O)[C@H](CO)NC(=O)[C@@H](NC(=O)C(C)(Cc2ccccc2F)NC(=O)[C@@H](NC(=O)CNC(=O)[C@H](CCC(=O)O)NC(=O)C2(C)CCCN2C(=O)[C@H](Cc2c[nH]cn2)NC(=O)OC)[C@@H](C)O)[C@@H](C)O)C(=O)N[C@@H](Cc2ccc(-c3ccccc3C)nc2)C(N)=O)cc1 (stereo partly shown) [SEQ ID NO: 158] (Moc-H[ξαMeP]EGT[ξαMePhe(2-F)]TSD[Phe(4-(2-Et-4-HO-Ph))][Ala(6-(2-MePh)pyridin-3-yl)]-NH2) | 11 nM * h/nmol/kg | ED50 = 2 nmoles/kg | statistically significant decrease | 0.15 ± 0.02 L/kg | 1.467 µM·h | – | – | – | plasma glucose AUC decreased (ob/ob mice; 10 nmol/kg sc, ipGTT ob/ob mice): 66%; Mean Hill (Mouse GLP-1 Receptor): 1.5; Emax (Mouse GLP-1 Receptor; CHO, percent of maximal GLP-1 stimulated activity): 101 ± 7.2%; EC50 (Human GLP-1 Receptor): 18 pM; Emax (Human GLP-1 Receptor; CHO, percent of maximal GLP-1 stimulated activity, human GLP-1 receptor): 101 ± 6.7%; Mean Hill (Human GLP-1 Receptor; human GLP-1 receptor): 1.5
2 | CCc1cc(OC)ccc1-c1ccc(C[C@H](NC(=O)[C@H](CC(=O)O)NC(=O)[C@H](CO)NC(=O)[C@@H](NC(=O)C(C)(Cc2ccccc2F)NC(=O)[C@@H](NC(=O)CNC(=O)[C@H](CCC(=O)O)NC(=O)C(C)(C)NC(=O)[C@@H](N)Cc2c[nH]cn2)C(C)O)C(C)O)C(=O)N[C@@H](Cc2ccc(-c3ccccc3C)nc2)C(N)=O)cc1 (stereo partly shown) [SEQ ID NO: 9] (H-H[Aib]EG[Thr(3ξ)][ξαMePhe(2-F)][Thr(3ξ)]SD[Bip(2'-Et-4'-OMe)][Ala(6-(2-MePh)pyridin-3-yl)]-NH2) | 18 nM * h/nmol/kg | 5 nmol/kg | statistically significant decrease | 0.21 ± 0.07 L/kg | 0.452 µM·h | −68% (p < 0.0001) | significant increase | 1.23 µM·h | maximum increase in postprandial plasma insulin AUC (ob/ob mice; 30 nmol/kg sc, ipGTT ob/ob mice): 187.7%; plasma glucose AUC decreased (ob/ob mice; 100 nmol/kg sc, ipGTT ob/ob mice): 85.8%; Potency in ob/ob mice ED50 (ob/ob mice; listed as 9): ED50 = 5 nmoles/kg; AUC [2, 3]: 0.529 ± 0.125 µM·h; MRT [2, 3]: 2.4 ± 0.5 h; clearance ([2]; dog, plasma, 67 ug/kg, male beagle dogs, intravenous 67 μg/kg, read-out: CLp): 1.4 ± 0.4 mL/min/kg; half-life [2, 3]: 7.1 ± 2.1 h; AUC [2, 5]: 0.452 ± 0.153 µM·h; Cmax [2, 5]: 116 ± 34 nM; MRT [2, 5]: 3.6 ± 1 h; Tmax [2, 5]: 1.1 ± 0.6 h; half-life [2, 5]: 2.6 ± 1.2 h; bioavailability ([2]; dog, plasma, male beagle dogs, subcutaneous 67 μg/kg vs intravenous): 93 ± 22%
3 | CCc1cc(OC)ccc1-c1ccc(C[C@H](NC(=O)[C@H](CC(=O)O)NC(=O)[C@H](Cc2c[nH]cn2)NC(=O)[C@@H](NC(=O)C(C)(Cc2ccccc2F)NC(=O)[C@@H](NC(=O)CNC(=O)[C@H](CCC(=O)O)NC(=O)C2(C)CCCN2C(=O)[C@@H](O)Cc2c[nH]cn2)[C@@H](C)O)[C@@H](C)O)C(=O)N[C@@H](Cc2ccc(-c3ccccc3C)nc2)C(N)=O)cc1 (stereo partly shown) [SEQ ID NO: 151] ({Lactoyl(3-(imidazol-4-yl))}-[ξαMeP]EGT[ξαMePhe(2-F)]THD[Bip(2'-Et-4'-OMe)][Ala(6-(2-MePh)pyridin-3-yl)]-NH2) | 16 nM * h/nmol/kg | 1 nmol/kg and 2 nmol/kg | statistically significant decrease | – | 1.566 µM·h | – | – | – | plasma glucose AUC decreased (ob/ob mice; 3 nmol/kg sc, ipGTT ob/ob mice): 67%; Potency in ob/ob mice ED50 (ob/ob mice; listed as 151): ED50 = 1 nmoles/kg
4 | CCc1cc(OC)ccc1-c1ccc(C[C@H](NC(=O)[C@H](CC(=O)O)NC(=O)[C@H](CO)NC(=O)[C@@H](NC(=O)C(C)(Cc2ccccc2F)NC(=O)[C@@H](NC(=O)CNC(=O)[C@H](CCC(=O)O)NC(=O)C(C)(C)NC(=O)[C@@H](N)Cc2c[nH]cn2)C(C)O)C(C)O)C(=O)N[C@@H](Cc2ccc(-c3ccccc3C)cc2)C(N)=O)cc1 (stereo partly shown) [Compound I, reference compound] (H-H[Aib]EG[Thr(3ξ)][ξαMePhe(2-F)][Thr(3ξ)]SD[Bip(2'-Et-4'-OMe)][Bip(2'-Me)]-NH2) | 22 nM * h/nmol/kg | – | decreasing in a dose-dependent manner | – | – | −15% (p = 0.247, NS) | statistically significant dose-dependent increase | 0.089 µM·h | –

Reference: US7960349B2 (Bristol-Myers Squibb Company, priority 2006, dated 2011)
